The results in this text go back to paper PMC5768359, “Dietary quercetin potentiates the antiproliferative effect of interferon-α in hepatocellular carcinoma cells through activation of JAK/STAT pathway signaling by inhibition of SHP2 phosphatase” (Oncotarget, 2017).

One test concerns the target T1, SHP2 (Homo sapiens, UniProt Q06124).
T1 construct: gene PTPN11; GST-SHP2 (residues 205–593)
T1 sequence (Q06124 205-593): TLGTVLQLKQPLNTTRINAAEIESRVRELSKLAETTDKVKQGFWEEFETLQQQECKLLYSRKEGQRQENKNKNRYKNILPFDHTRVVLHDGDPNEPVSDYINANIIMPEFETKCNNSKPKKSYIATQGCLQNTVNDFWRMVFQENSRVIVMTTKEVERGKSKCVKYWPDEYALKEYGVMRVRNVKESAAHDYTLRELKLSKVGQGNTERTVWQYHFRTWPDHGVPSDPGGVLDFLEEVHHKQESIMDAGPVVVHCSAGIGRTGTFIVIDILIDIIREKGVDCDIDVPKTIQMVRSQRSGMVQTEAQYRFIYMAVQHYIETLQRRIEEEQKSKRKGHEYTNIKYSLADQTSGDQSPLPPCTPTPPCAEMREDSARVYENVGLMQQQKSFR
Nature of the test: DiFMUP phosphatase assay with recombinant SHP2; supported by cellular thermal shift assay in HEK293A lysate. It counts as biochemical.

For another test, the target named is T2, SHP1 (Homo sapiens, UniProt P29350).
T2 construct: gene PTPN6
T2 sequence (P29350 whole entry): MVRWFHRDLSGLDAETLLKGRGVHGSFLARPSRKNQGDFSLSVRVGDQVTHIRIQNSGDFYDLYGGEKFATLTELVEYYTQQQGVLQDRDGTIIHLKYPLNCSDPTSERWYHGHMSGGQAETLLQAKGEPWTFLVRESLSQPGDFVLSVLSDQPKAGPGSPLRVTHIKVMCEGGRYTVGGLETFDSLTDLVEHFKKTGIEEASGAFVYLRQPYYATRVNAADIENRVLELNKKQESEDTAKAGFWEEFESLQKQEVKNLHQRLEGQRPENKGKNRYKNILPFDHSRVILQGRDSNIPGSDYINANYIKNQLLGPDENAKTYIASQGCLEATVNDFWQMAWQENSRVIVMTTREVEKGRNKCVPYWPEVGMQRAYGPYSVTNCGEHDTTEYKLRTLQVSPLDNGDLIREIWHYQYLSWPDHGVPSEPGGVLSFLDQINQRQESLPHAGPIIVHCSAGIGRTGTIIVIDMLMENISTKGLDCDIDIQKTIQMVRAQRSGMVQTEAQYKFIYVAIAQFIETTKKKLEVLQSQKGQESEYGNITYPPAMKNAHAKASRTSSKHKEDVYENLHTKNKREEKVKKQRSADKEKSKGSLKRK
Nature of the test: DiFMUP phosphatase assay with recombinant SHP1; supported by thermal stability shift. It counts as biochemical.

What is called IC50 is the concentration that inhibits the measured activity by half.

SMILES strings stand for the structures.

In the case of `O=c1c(O)c(-c2ccc(O)c(O)c2)oc2cc(O)cc(O)c12` [quercetin], the IC50 is 10.2 ± 0.21 µM at SHP2 and 31.1 ± 1.27 µM at SHP1.
